Results on two compounds are retold here after article PMC12645083, “Microwave‐Enhanced Synthesis of 2‐Styrylquinoline‐4‐Carboxamides With Promising Anti‐Lymphoma Activity” (Archiv Der Pharmazie, 2025).

The test system of test [1] is VL51. In words: Mitochondrial ROS detection (MitoSOX). In kind it is cell-based, human. Conditions: 24 h of treatment. How it is done: (§1) Cells were plated in 12‐well plates at 0.2 × 10⁶ cells/mL in 1 mL of complete medium. After 24 h, cells were treated with the indicated compound concentrations. Following a 24‐h treatment, cells were stained with 0.5 µM MitoSOX (Invitrogen, US) for 20 min. After washing with PBS, fluorescence was measured using a CytoFLEX flow cytometer (Beckman Coulter) and analyzed with FlowJo software v.10.7.1.

The subject of test [2] is TOLEDO. In words: Mitochondrial ROS detection (MitoSOX). In kind it is cell-based, human. Conditions: 24 h of treatment. How it is done: as §1
Test [3] concerns VL51. In words: Mitochondrial membrane potential analysis (TMRE). It counts as cell-based, human. Particulars: 24 h of treatment. How it is done: (§2) Cells were plated in 12‐well plates at 0.2 × 10⁶ cells/mL in 1 mL of complete medium. After 24 h, cells were treated with the indicated compound concentrations. Following a further 24‐h incubation, cells were stained with TMRE (Invitrogen, US) at 1 µM for 20 min. After washing with 1X PBS, fluorescence was detected using a CytoFLEX flow cytometer (Beckman Coulter) and analyzed with FlowJo software v.10.7.1.

The subject of test [4] is TOLEDO. The test can be described thus: Mitochondrial membrane potential analysis (TMRE). It counts as cell-based, human. Particulars: 24 h of treatment. On the procedure:
as §2

Test [5] deals with panel of five tumor cell lines (HD-MB03, RPMI-8402, SU-DHL-8, A549, MDA-MB-231). In words: Antiproliferative activity, range over the panel of five tumor cell lines. It counts as cell-based. Particulars: Homo sapiens; range over the active cell lines of the five-line panel; 72 h. On the procedure:
The synthesized quinoline derivatives 4a–z and 4aa–ah were evaluated in vitro for their antiproliferative activity against a panel of five tumor cell lines (HD‐MB03, medulloblastoma; RPMI‐8402, T‐lymphoblastic leukemia; SU‐DHL‐8, B lymphocyte, large cell lymphoma; A549, non‐small cell lung cancer; MDA‐MB‐231, triple‐negative breast cancer) (Table 2). […] Replacing the 4‐Cl group with a trifluoromethyl group (4ac) reduced antiproliferative activity.
To test the newly synthesized compounds, various human cell lines were employed. HD‐MB03 cells were purchased from DSMZ (Braunschweig, Germany), while A549, MDA‐MB‐231, RPMI‐8420, SU‐DHL‐8, TOLEDO, VL51, SU‐DHL‐1, SU‐DHL‐18, and KM‐H2 were obtained from ATCC (Manassas, VA, USA). Cells were cultured in DMEM (for MDA‐MB‐231 and A549) or RPMI‐1640 (for RPMI‐8420, SU‐DHL‐8, TOLEDO, VL51, SU‐DHL‐1, SU‐DHL‐18, KM‐H2, and HD‐MB03) media (Gibco, Milan, Italy). Both media were supplemented with 115 units/mL penicillin G (Gibco, Milan, Italy), 115 µg/mL streptomycin (Invitrogen, Milan, Italy), and 10% fetal bovine serum (Invitrogen, Milan, Italy). Peripheral blood mononuclear cells (PBMCs) were isolated from healthy donors as previously described. For cytotoxicity assays, PBMCs were resuspended at 5 × 10⁵ cells/mL in complete RPMI medium with or without 2.5 µg/mL phytohemagglutinin (PHA) (Irvine Scientific) to stimulate T‐cell activation and proliferation. All cell lines were maintained at 37°C in a humidified atmosphere containing 5% CO₂. All compounds were dissolved in DMSO at a 10 mM stock concentration. For dose–response assays, cells were seeded in 96‐well plates at densities optimized for each cell line: HD‐MB03 at 10,000 cells/well, A549 at 4000 cells/well, and MDA‐MB‐231 at 7000 cells/well. All other cell lines were seeded at 20,000 cells/well in a final volume of 100 µL per well. After 24 h, cells were treated with a 6‐point serial dilution of compounds starting from 10 µM, in triplicate for statistical analysis. Seventy‐2 h posttreatment, 10 µL of resazurin solution (100 µg/mL) was added to each well, and cells were incubated for an additional 3–6 h. Fluorescence was measured using a Spark 10 M microplate reader (Tecan Group Ltd., Männedorf, Switzerland) with excitation at 535 nm and emission at 600 nm. The IC₅₀ was defined as the concentration of compound required to inhibit cell proliferation by 50% compared to cells treated with the highest DMSO concentration.

On to `O=C(Nc1ccc([N+](=O)[O-])cc1)c1cc(/C=C/c2ccccc2)nc2ccccc12` [4i, (E)-N-(4-nitrophenyl)-2-styrylquinoline-4-carboxamide], for which the “Mitochondrial ROS (MitoSOX-positive cells)” value in the test with VL51 [1] and in the test on TOLEDO [2] was “marked dose‐dependent increase of mitochondrial ROS” in each case. The “Mitochondrial membrane depolarization (TMRE-negative cells)” value with VL51 [3] and in the test on TOLEDO [4] was “increased percentage of TMRE‐negative cells” each time.

For orientation: IC50 means the concentration that inhibits the measured activity by half. In test [5], `O=C(Nc1ccc(Cl)cc1)c1cc(/C=C/c2ccccc2[N+](=O)[O-])nc2ccccc12` [4ah, (E)-N-(4-chlorophenyl)-2-(2-nitrostyryl)quinoline-4-carboxamide] displayed a 50% inhibitory concentration (IC50) of 1.33 to 6.92 µM.
